From PMC11148772, “Inhibition of protein translational machinery in triple-negative breast cancer as a promising therapeutic strategy” (Cell Reports Medicine, 2024)
“Also recorded” adds a separate entry of the source.

Assays:
MDA-MB-231 cells = test: Cell cycle analysis (PI, flow cytometry); format: cell-based, human
Protocol: (§1) TNBC cells (MDA-MB-231, MDA-MB-468, and SUM159) were seeded (40,000 cells per well) in 12 well plates and grown in regular conditions. The next day, cells were treated with DMSO (control) and indicated SU056 concentrations. At the end of each time point, cells were processed for PI staining as described earlier.[49] Synchronization of cells in G2/M phase was done using nocodazole (200 nM for 16 h) followed by SU056 treatment for 24 h. Cell cycle distribution was then analyzed by flow cytometry using a BD FACS Calibur (BD, USA).

MDA-MB-468 cells = test: Cell cycle analysis (PI, flow cytometry); format: cell-based, human
Protocol: as §1

[1] = tested on: MDA-MB-231 tumor xenograft; test: Subcutaneous tumor xenograft; format: in vivo, mouse; conditions: 50 mg/kg oral gavage, NSG mice
Protocol: (§2) Female NOD-Scid gamma (NSG, Homozygous for Prkdc, Hemizygous for Il2rg<tm1Wjl>) (Strain #005557) and Balb/cJ (Strain#000651) (7–8 weeks old) mice were purchased from the Jackson Laboratory and housed under standard laboratory conditions. The Institutional Animal Care & Use Program of Oregon Health and Science University approved the protocol (#IP00003247). MDA-MB-231 (3 x 10^6), MDA-MB-468 (5 x 10^6), 4T1 (1 x 10^5) and EMT6 (1 x 10^5) cells were suspended in 100 μL of 1x PBS and injected subcutaneously in each mouse. Tumor growth was monitored regularly and once the tumors reached approximately around 50–100 mm^3, treatment with SU056 (50 mg/kg body weight given by oral gavage, 5 days per week) was started. Tumor size and body weight were measured once a week. At the end of treatment, mice were euthanized via deep anesthesia followed by cervical dislocation. Tumors were excised and weighed. Tumor samples were processed for immunoblotting for different markers.

[2] = tested on: MDA-MB-468 tumor xenograft; test: Subcutaneous tumor xenograft; format: in vivo, mouse; conditions: 50 mg/kg oral gavage, NSG mice
Protocol: as §2

MA2821-PDX-TNBC = test: Patient-derived xenograft; format: in vivo, mouse; conditions: 50 mg/kg orally, NSG mice
Text: Different patient-derived xenograft (PDX) of TNBC were used in this study. The Institutional Animal Care & Use Program of Oregon Health and Science University approved the protocol (#IP00003247). SUTI151-PDX-TNBC was kindly provided by Stefanie S. Jeffrey, MD, Stanford University, CA, USA.[48] CA1616-PDX-TNBC, CA1262-PDX-TNBC, and MA2821-PDX-TNBC were procured from the NCI Patient-Derived Models Repository (PDMR). Information of the PDX samples from NCI can be accessed at https://pdmr.cancer.gov/models/pdx.htm. 6–8 weeks old NSG (female) mice were anesthetized with isoflurane and tumor cells were xenografted into 5th mammary fat pad. Post-xenograft, once tumors reached a size of 50–100 mm^3, SU056 treatment (50 mg/kg body weight administered by oral gavage, 5 days per week) was started. At the end of treatment, mice were euthanized under deep anesthesia and tumors were surgically removed, measured, and weighed.

[3] = Body weight during tumor xenograft treatment; format: in vivo, mouse; conditions: 50 mg/kg
Protocol: as §2
Data S2. Effect of SU056 treatment on body weight, metastatic potential and pharmacokinetic profiling of SU056, related to Figure 2 and 3
Human, mouse and PDX models of TNBC were used for tumor xenograft studies. SU056 treatment was started when tumors reached around ~25-50 mm3 and continued until the experiment reached its 3-week endpoint. Body weight was monitored throughout the study to understand any change in dietary pattern. […]

[4] = Maximum tolerated dose / acute oral toxicity; format: in vivo; parameters: key to Behavioral, Neurologic and Autonomic signs, Response, all listed signs: 0; no adverse effect; ±1 mild adverse effect; ±2, moderate adverse effect; ±3 severe adverse effect; conditions: for Body Weight, Mean / Toxicity (death/test) / Behavioral, Neurologic and Autonomic signs, Response, all listed signs: Female SD rats; for Behavioral, Neurologic and Autonomic signs, Response, all listed signs: observation time 1 hr, 3 animals
Protocol: Female Sprague-Dawley rats (Charles river laboratories, strain code: Crl:CD(SD) 001, 8–10 weeks old) were used by the eurofins lab services (Eurofins Discovery) to test the toxicity of SU056.
The acute oral toxicity of SU056 was evaluated by Eurofins lab services (Eurofins discovery). The oral toxicity study was performed in female rats and mice for multiple escalating doses (100 mg/kg, 200 mg/kg, 400 mg/kg). Rats and mice were monitored for their behavioral, neurological and autonomic signs after administration of SU056. The response was recorded as 0; no adverse effect, ±1 mild adverse effect, ±2, moderate adverse effect and ±3 severe adverse effect.

[5] = nocodazole 200 nM 16 h, then SU056 24 h

O=C1OCC2=C1C(c1cccc(F)c1)c1cc3c(cc1N2CCO)OCO3 (stereo not shown) [SU056, 9-(3-fluorophenyl)-5-(2-hydroxyethyl)-6,9-dihydro-[1,3]dioxolo[4,5-g]furo[3,4-b]quinolin-8(5H)-one]
cells in G2/M phase (MDA-MB-231 cells; 24 h, control 12%): 34%
cell death in nocodazole-synchronized cells (MDA-MB-231 cells; [5]): increased cell death
cell cycle effect (MDA-MB-468 cells; 0.5, 1.0, and 2.0 μM, 12 and 24 h): G2/M phase arrest
cell death in nocodazole-synchronized cells (MDA-MB-468 cells; [5]): increased cell death
tumor growth arrested compared to vehicle control [1]: 48%
tumor weight reduced compared with vehicle control [1]: 44.4%
primary tumor growth reduced compared with vehicle control [2]: 49.8%
tumor weight reduced compared with vehicle control [2]: 35.1%
tumor growth decreased (MA2821-PDX-TNBC): 51.35%
tumor weight reduced (MA2821-PDX-TNBC): 48.89%
body weight of animals throughout treatment ([3]; MDA-MB-231, MDA-MB-468, 4T1, EMT6 models): remained the same
body weight of animals throughout treatment ([3]; PDX models): remained the same
Body Weight, Mean ([4]; 100 mg/kg, 0 hr): 212.7 gm
Toxicity (death/test) ([4]; 100 mg/kg, 15 min): 0/3
Toxicity (death/test) ([4]; 100 mg/kg, 1 hr): 0/3
Body Weight, Mean ([4]; 100 mg/kg, 24 hr): 216.7 gm
Toxicity (death/test) ([4]; 100 mg/kg, 24 hrs): 0/3
Body Weight, Mean ([4]; 100 mg/kg, 48 hr): 219.0 gm
Toxicity (death/test) ([4]; 100 mg/kg, 48 hrs): 0/3
Body Weight, Mean ([4]; 100 mg/kg, 72 hr): 229.7 gm
Toxicity (death/test) ([4]; 100 mg/kg, 72 hrs): 0/3
Behavioral, Neurologic and Autonomic signs, Response, all listed signs ([4]; 100 mg/kg): 0
Body Weight, Mean ([4]; 200 mg/kg, 0 hr): 204.3 gm
Toxicity (death/test) ([4]; 200 mg/kg, 15 min): 0/3
Toxicity (death/test) ([4]; 200 mg/kg, 1 hr): 0/3
Body Weight, Mean ([4]; 200 mg/kg, 24 hr): 208.0 gm
Toxicity (death/test) ([4]; 200 mg/kg, 24 hrs): 0/3
Body Weight, Mean ([4]; 200 mg/kg, 48 hr): 211.0 gm
Toxicity (death/test) ([4]; 200 mg/kg, 48 hrs): 0/3
Body Weight, Mean ([4]; 200 mg/kg, 72 hr): 215.0 gm
Toxicity (death/test) ([4]; 200 mg/kg, 72 hrs): 0/3
Behavioral, Neurologic and Autonomic signs, Response, all listed signs ([4]; 200 mg/kg): 0
Body Weight, Mean ([4]; 400 mg/kg, 0 hr): 204.0 gm
Toxicity (death/test) ([4]; 400 mg/kg, 15 min): 0/3
Toxicity (death/test) ([4]; 400 mg/kg, 1 hr): 0/3
Body Weight, Mean ([4]; 400 mg/kg, 24 hr): 200.0 gm
Toxicity (death/test) ([4]; 400 mg/kg, 24 hrs): 0/3
Body Weight, Mean ([4]; 400 mg/kg, 48 hr): 209.7 gm
Toxicity (death/test) ([4]; 400 mg/kg, 48 hrs): 0/3
Body Weight, Mean ([4]; 400 mg/kg, 72 hr): 216.7 gm
Toxicity (death/test) ([4]; 400 mg/kg, 72 hrs): 0/3
Behavioral, Neurologic and Autonomic signs, Response, all listed signs ([4]; 400 mg/kg): 0
behavioral, neurological, and anatomical signs of toxicity and morbidity ([4]; rats, 100, 200, and 400 mg/kg oral gavage, 72 h): not affected; also recorded: no observable changes
